{
  "source": "ChEMBL document CHEMBL6096630",
  "about": "“Enhancing therapeutic efficacy in homologous recombination-proficient pancreatic cancer via the combination of PARP1-PROTAC and a BRD4 inhibitor” (Bioorg Med Chem, 2024)",
  "key": {"[1]": {"test_system": "PANC-1", "assay": "Synergistic antiproliferative activity against human PANC-1 cells expressing wild-type BRCA assessed as combination index at 2:1 ratio of compound:JQ1 incubated for 5 days by CCK8 assay", "type": "functional", "conditions": "time 5 day"}, "[2]": {"test_system": "PANC-1", "assay": "Induction of cell cycle arrest in human PANC-1 cells assessed as accumulation at G2/M phase at 2 uM incubated for 24 hrs in presence of JQ1 by PI staining based flow cytometry", "type": "functional"}, "[3]": {"test_system": "PANC-1", "assay": "Induction of DNA damage in human PANC-1 cells assessed as decrease in RAD51 level at 1 uM in presence of OL by Western blot analysis", "type": "functional, cell-based"}, "[4]": {"test_system": "PANC-1", "assay": "Induction of cell cycle arrest in human PANC-1 cells assessed as accumulation at G1 phase at 0.25 uM incubated for 24 hrs by PI staining based flow cytometry (reference value: 51.70 %)", "type": "functional"}, "[5]": {"test_system": "PANC-1", "assay": "Induction of cell cycle arrest in human PANC-1 cells assessed as accumulation at G2 phase at 0.25 uM incubated for 24 hrs by PI staining based flow cytometry (reference value: 9.36 %)", "type": "functional"}, "[6]": {"test_system": "PANC-1", "assay": "Induction of cell cycle arrest in human PANC-1 cells assessed as accumulation at G1 phase at 1 uM incubated for 24 hrs in presence of OL by PI staining based flow cytometry (reference value: 51.70 %)", "type": "functional"}, "[7]": {"test_system": "PANC-1", "assay": "Induction of cell cycle arrest in human PANC-1 cells assessed as accumulation at S phase at 1 uM incubated for 24 hrs in presence of OL by PI staining based flow cytometry (reference value: 38.94 %)", "type": "functional"}, "[8]": {"test_system": "PANC-1", "assay": "Induction of cell cycle arrest in human PANC-1 cells assessed as accumulation at G2 phase at 1 uM incubated for 24 hrs in presence of OL by PI staining based flow cytometry (reference value: 9.36 %)", "type": "functional"}, "[9]": {"test_system": "PANC-1", "assay": "Induction of cell cycle arrest in human PANC-1 cells assessed as accumulation at G1 phase at 0.12 uM incubated for 24 hrs by PI staining based flow cytometry (reference value: 51.70 %)", "type": "functional"}, "[10]": {"test_system": "PANC-1", "assay": "Induction of cell cycle arrest in human PANC-1 cells assessed as accumulation at S phase at 0.12 uM incubated for 24 hrs by PI staining based flow cytometry (reference value: 38.94 %)", "type": "functional"}, "[11]": {"test_system": "PANC-1", "assay": "Induction of apoptosis in human PANC-1 cells assessed as necrotic cells at 0.12 uM incubated for 48 hrs by Annexin V-FITC/PI staining based flow cytometry (reference value: 3.09 %)", "type": "functional"}, "[12]": {"test_system": "PANC-1", "assay": "Induction of apoptosis in human PANC-1 cells assessed as viable cells at 0.25 uM incubated for 48 hrs by Annexin V-FITC/PI staining based flow cytometry (reference value: 91.64 %)", "type": "functional", "conditions": "read-out: Activity"}, "[13]": {"test_system": "PANC-1", "assay": "Induction of apoptosis in human PANC-1 cells assessed as necrotic cells at 0.25 uM incubated for 48 hrs by Annexin V-FITC/PI staining based flow cytometry (reference value: 3.09 %)", "type": "functional"}, "[14]": {"test_system": "PANC-1", "assay": "Induction of apoptosis in human PANC-1 cells assessed as necrotic cells at 0.5 uM incubated for 48 hrs by Annexin V-FITC/PI staining based flow cytometry (reference value: 3.09 %)", "type": "functional"}, "[15]": {"test_system": "PANC-1", "assay": "Induction of apoptosis in human PANC-1 cells assessed as viable cells at 1 uM incubated for 48 hrs by Annexin V-FITC/PI staining based flow cytometry (reference value: 91.64 %)", "type": "functional", "conditions": "read-out: Activity"}, "[16]": {"test_system": "PANC-1", "assay": "Induction of apoptosis in human PANC-1 cells at 1 uM incubated for 48 hrs in presence of OL by Annexin V-FITC/PI staining based flow cytometry relative to control", "type": "functional"}, "[17]": {"test_system": "PANC-1", "assay": "Antitumor activity against human PANC-1 cells xenografted in BALB/c mouse assessed as reduction in tumor growth at 20 mg/kg, ip for 4 weeks administered for 5 days consecutively and 2 days without treatment on every week in presence of OL", "type": "functional, organism-based"}, "[18]": {"test_system": "PANC-1", "assay": "Antitumor activity against human PANC-1 cells xenografted in BALB/c mouse assessed as inhibition of tumor volume at 20 mg/kg, ip for 4 weeks administered for 5 days consecutively and 2 days without treatment on every week in presence of OL", "type": "functional, organism-based"}, "[19]": {"assay": "Toxicity in BALB/c mouse xenografted with human PANC-1 cells assessed as animal morbidity at 20 mg/kg, ip for 4 weeks administered for 5 days consecutively and 2 days without treatment on every week in presence of OL", "type": "organism-based", "conditions": "in vivo, 672 h"}, "[20]": {"assay": "Toxicity in BALB/c mouse xenografted with human PANC-1 cells assessed as body weight loss at 20 mg/kg, ip for 4 weeks administered for 5 days consecutively and 2 days without treatment on every week", "type": "organism-based", "conditions": "in vivo, 672 h"}, "[21]": {"assay": "Toxicity in BALB/c mouse xenografted with human PANC-1 cells assessed as body weight loss at 20 mg/kg, ip for 4 weeks administered for 5 days consecutively and 2 days without treatment on every week in presence of OL", "type": "organism-based", "conditions": "in vivo, 672 h"}, "[22]": {"assay": "Toxicity in BALB/c mouse xenografted with human PANC-1 cells assessed as pathological changes in heart at 20 mg/kg, ip for 4 weeks administered for 5 days consecutively and 2 days without treatment on every week in presence of OL by H and E staining based analysis", "type": "organism-based", "conditions": "in vivo, 672 h"}, "[23]": {"assay": "Toxicity in BALB/c mouse xenografted with human PANC-1 cells assessed as pathological changes in spleen at 20 mg/kg, ip for 4 weeks administered for 5 days consecutively and 2 days without treatment on every week by H and E staining based analysis", "type": "organism-based", "conditions": "in vivo, 672 h"}, "[24]": {"assay": "Toxicity in BALB/c mouse xenografted with human PANC-1 cells assessed as pathological changes in liver at 20 mg/kg, ip for 4 weeks administered for 5 days consecutively and 2 days without treatment on every week by H and E staining based analysis", "type": "organism-based", "conditions": "in vivo, 672 h"}, "[25]": {"test_system": "PANC-1", "assay": "Synergistic antiproliferative activity against human PANC-1 cells expressing wild-type BRCA assessed as inhibition of cell viability incubated for 5 days in presence of JQ1 by CCK8 assay", "type": "functional, cell-based", "conditions": "time 5.0 day"}, "[26]": {"test_system": "BXPC-3", "assay": "Synergistic antiproliferative activity against human BXPC-3 cells expressing wild-type BRCA assessed as inhibition of cell viability incubated for 5 days in presence of JQ1 by CCK8 assay", "type": "functional, cell-based", "conditions": "time 5.0 day"}, "[27]": {"test_system": "PANC-1", "assay": "Synergistic inhibition of colony formation in human PANC-1 cells at 2 uM incubated for 14 days in presence of JQ1 by crystal violet staining based analysis", "type": "functional, cell-based", "conditions": "time 14.0 day"}, "[28]": {"molecular_target": "T1, Protein cereblon/Poly [ADP-ribose] polymerase 1 (Homo sapiens, UniProt P09874+Q96SW2)", "T1 sequence (P09874 2-1014 limits assumed)": "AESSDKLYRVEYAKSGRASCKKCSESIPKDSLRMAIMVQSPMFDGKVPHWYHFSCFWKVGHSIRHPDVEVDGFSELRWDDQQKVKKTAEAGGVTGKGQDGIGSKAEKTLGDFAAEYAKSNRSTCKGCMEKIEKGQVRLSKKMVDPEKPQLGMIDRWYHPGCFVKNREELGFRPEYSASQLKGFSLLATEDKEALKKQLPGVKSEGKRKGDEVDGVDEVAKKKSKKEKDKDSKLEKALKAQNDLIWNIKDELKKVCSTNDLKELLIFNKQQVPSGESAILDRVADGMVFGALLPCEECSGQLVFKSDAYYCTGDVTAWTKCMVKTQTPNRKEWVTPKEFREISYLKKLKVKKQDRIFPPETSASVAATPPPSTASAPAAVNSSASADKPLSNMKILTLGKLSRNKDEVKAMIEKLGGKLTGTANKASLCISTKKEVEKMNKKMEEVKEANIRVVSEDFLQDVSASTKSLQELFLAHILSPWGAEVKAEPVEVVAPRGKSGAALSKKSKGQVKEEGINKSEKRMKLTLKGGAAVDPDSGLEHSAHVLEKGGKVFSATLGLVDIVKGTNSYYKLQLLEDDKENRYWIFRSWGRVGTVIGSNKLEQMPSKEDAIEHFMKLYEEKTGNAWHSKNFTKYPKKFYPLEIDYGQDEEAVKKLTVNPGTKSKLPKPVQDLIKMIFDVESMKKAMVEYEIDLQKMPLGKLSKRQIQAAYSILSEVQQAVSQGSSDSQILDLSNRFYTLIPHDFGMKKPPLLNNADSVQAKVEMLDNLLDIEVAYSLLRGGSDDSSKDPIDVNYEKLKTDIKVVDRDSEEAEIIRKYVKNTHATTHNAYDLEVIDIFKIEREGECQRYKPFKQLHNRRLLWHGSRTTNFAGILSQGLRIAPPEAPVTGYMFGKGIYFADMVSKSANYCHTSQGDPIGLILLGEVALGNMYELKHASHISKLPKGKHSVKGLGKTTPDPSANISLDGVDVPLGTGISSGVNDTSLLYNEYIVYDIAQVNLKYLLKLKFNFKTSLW", "T1 sequence (Q96SW2 whole entry partner)": "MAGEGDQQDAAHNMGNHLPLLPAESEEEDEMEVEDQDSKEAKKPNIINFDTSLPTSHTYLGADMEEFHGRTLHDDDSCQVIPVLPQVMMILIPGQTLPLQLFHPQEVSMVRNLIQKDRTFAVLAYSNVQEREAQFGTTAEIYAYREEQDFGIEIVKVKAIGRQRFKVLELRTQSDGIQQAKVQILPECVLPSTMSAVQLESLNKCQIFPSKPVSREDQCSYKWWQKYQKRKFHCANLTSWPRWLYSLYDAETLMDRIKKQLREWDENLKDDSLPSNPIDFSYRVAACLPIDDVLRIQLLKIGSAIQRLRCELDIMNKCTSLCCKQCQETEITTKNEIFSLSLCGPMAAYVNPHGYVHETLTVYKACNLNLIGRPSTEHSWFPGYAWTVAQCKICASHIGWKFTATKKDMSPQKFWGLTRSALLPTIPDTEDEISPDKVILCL", "assay": "PROTAC activity at CRBN/PARP1 in human PANC-1 cells assessed as induction of PARP1 degradation incubated for 24 hrs by Western blot analysis relative to control", "type": "cell-based"}, "[29]": {"molecular_target": "T1, Protein cereblon/Poly [ADP-ribose] polymerase 1", "assay": "PROTAC activity at CRBN/PARP1 in human BXPC-3 cells assessed as induction of PARP1 degradation incubated for 24 hrs by Western blot analysis relative to control", "type": "cell-based"}, "[30]": {"test_system": "PANC-1", "assay": "Induction of cell cycle arrest in human PANC-1 cells assessed as decrease in CDK4 level at 2 uM incubated for 24 hrs in presence of JQ1 by […]", "type": "functional"}, "[31]": {"test_system": "PANC-1", "assay": "Induction of cell cycle arrest in human PANC-1 cells assessed as decrease in CDK6 level at 2 uM incubated for 24 hrs in presence of JQ1 by […]", "type": "functional"}},
  "note": "Activity calls are given as the source filed them. No cut-off for these calls is given here.",
  "data": [
    {"smiles": "O=C(c1cc(Cc2n[nH]c(=O)c3ccccc23)ccc1F)N1CCN(C(=O)C2CC2)CC1", "note": "[OLAPARIB]", "values": [
      {"measurement": "CI", "setting": "[1]", "value": "<1"},
      {"measurement": "Activity", "setting": "[2]", "value": "Active; Only A Slight Increase Observed"}
    ]},
    {"smiles": "Cc1sc2c(c1C)C(c1ccc(Cl)cc1)=N[C@@H](CC(=O)OC(C)(C)C)c1nnc(C)n1-2", "values": [
      {"measurement": "Activity", "setting": "[3]", "value": "Active"},
      {"measurement": "Activity", "setting": "[4]", "value": 48.96, "unit": "%"},
      {"measurement": "Activity", "setting": "[5]", "value": 12.15, "unit": "%"},
      {"measurement": "Activity", "setting": "[6]", "value": 58.42, "unit": "%"},
      {"measurement": "Activity", "setting": "[7]", "value": 25.85, "unit": "%"},
      {"measurement": "Activity", "setting": "[8]", "value": 15.74, "unit": "%"},
      {"measurement": "Activity", "setting": "[9]", "value": 46.24, "unit": "%"},
      {"measurement": "Activity", "setting": "[10]", "value": 40.51, "unit": "%"},
      {"measurement": "Activity", "setting": "[11]", "value": 2.94, "unit": "%"},
      {"measurement": "viability at 0.25 µM", "setting": "[12]", "value": 89.4, "unit": "%"},
      {"measurement": "Activity", "setting": "[13]", "value": 2.48, "unit": "%"},
      {"measurement": "Activity", "setting": "[14]", "value": 3.56, "unit": "%"},
      {"measurement": "viability at 1 µM", "setting": "[15]", "value": 80.3, "unit": "%"},
      {"measurement": "Activity", "setting": "[16]", "value": 26.9, "unit": "%"},
      {"measurement": "Activity", "setting": "[17]", "value": "Active"},
      {"measurement": "inhibition", "setting": "[18]", "value": "Active"},
      {"measurement": "Activity", "setting": "[19]", "value": "Non-toxic"},
      {"measurement": "Activity", "setting": "[20]", "value": "Toxic"},
      {"measurement": "Activity", "setting": "[21]", "value": "Toxic"},
      {"measurement": "Activity", "setting": "[22]", "value": "Non-toxic"},
      {"measurement": "Activity", "setting": "[23]", "value": "Non-toxic"},
      {"measurement": "Activity", "setting": "[24]", "value": "Non-toxic"}
    ]},
    {"smiles": "O=C1CCC(N2C(=O)c3cccc(NC(=O)CNCCCCCCCCCCC(=O)N4CCN(C(=O)c5cc(Cc6n[nH]c(=O)c7ccccc67)ccc5F)CC4)c3C2=O)C(=O)N1", "note": "(stereo unspecified)", "values": [
      {"measurement": "inhibition", "setting": "[25]", "value": "Active"},
      {"measurement": "inhibition", "setting": "[26]", "value": "Active"},
      {"measurement": "inhibition", "setting": "[27]", "value": "Active"},
      {"measurement": "Emax", "setting": "[28]", "value": "> 95", "unit": "%"},
      {"measurement": "Emax", "setting": "[29]", "value": "> 92", "unit": "%"},
      {"measurement": "Activity", "setting": "[30]", "value": "Active"},
      {"measurement": "Activity", "setting": "[31]", "value": "Active"}
    ]}
  ]
}
